Data from PMC6811539, “Minute-scale persistence of a GPCR conformation state triggered by non-cognate G protein interactions primes signaling” (Nature Communications, 2019).
Several values for one entry are separate records, joined by “and”; a condition that tells them apart may be missing. Equal entries are not always repeated. Where two headings read alike, the source gives them in different places. Where a SMILES comes first, the peptide text is derived from it. The star is where a group is joined. Biotin = O=C1N[C@H]2[C@H](CS[C@H]2CCCCC(=O)*)N1

Assays:
[1] = extent of photocleavage of PC-Qp by MALDI-MS; assay type: physicochemical
Method: Native membranes were prepared from cells expressing β2-mCer and were stored in sucrose-supplemented buffer A as described above (Membrane preparations). […]. Both samples were centrifuged 100,000 × g, 5 min, 4 °C to sediment the membrane. Supernatants were stored on ice for analysis by MS. Control samples containing 50 μM peptide in the buffer were also prepared.
Prior to matrix-assisted laser desorption and ionization time-of-flight MS (MALDI-TOF MS) analysis, the samples were desalted using C18 ZipTips (Millipore Corporation, Billerica, MA). The manufacturer’s standard protocol for peptide clean-up was followed. After elution from the ZipTip, 1 μL of each sample was spotted on a MALDI-TOF 384 spot stainless-steel target (Bruker Daltonics, Billerica, MA) and mixed with 1 μl of α-cyano-4-hydroxy-cinnamic acid (α-CHCA) matrix (15 mg/ml α-CHCA in 50% acetonitrile). Each spot was allowed to dry at room temperature. The target was placed in a Bruker Autoflex Speed MALDI-TOF mass spectrometer (Bruker Daltonics, Billerica, MA) equipped with a Nd-YAG 355 nm pulsed laser. The data were collected in reflectron mode, positive polarity, with an accelerating potential of 19 kV. Each spectrum was the accumulation of 4000 laser shots with complete spot raster of the laser during data collection. External calibration was performed using 0.5 μl α-CHCA and 0.5 μl of peptide standard (part# 206195, Bruker Daltonics, Billerica, MA) with Angiotensin II (monoisotopic mass [MH^+ ] 1046.5418), Angiotensin I (monoisotopic mass [MH^+ ] 1296.6848), SubstanceP (monoisotopic mass [MH^+] 1347.7354), Bombesin (monoisotopic mass [MH^+] 1619.8223), ACTH clip 1–17 (monoisotopic mass [MH^+] 2093.0862), ACTH clip 18–39 (monoisotopic mass [MH^+] 2465.1983), and Somatostatin 28 (monoisotopic mass [MH^+] 3147.4710). The Bruker data files were converted to mzXML files using MSConvertGUI tool in ProteoWizard open-source software. The mzXML files were viewed and analyzed with mMass v5.5 open-source software.

PKC = experiment: cAMP accumulation with PKC inhibitors in Gαq-overexpressing and untransfected HEK293T cells; assay type: cell-based, human; conditions: pretreatment with inhibitor 10 μM; fenoterol 10 μM, forskolin 2 μM
Description: (§1) For concentration–response curves with Gαq overexpression as well as the knockdown experiments, transfected and control cells (untransfected or mock short hairpin RNA transfected) were resuspended to equivalent concentration (4 × 10^6 cells/ml) based on Countess II numbers.

β2-AR SPASM sensors = β2-AR SPASM sensors (Homo sapiens, UniProt P07550); experiment: cAMP accumulation in HEK293T cells expressing β2-AR SPASM sensors (cAMP Glo); assay type: cell-based; conditions: saturating agonist, normalized to β2-AR-(-), mean; for Emax: HEK-293T, read-out: Maximum cAMP (Emax)
endogenous β2-AR = endogenous β2-AR (Homo sapiens, UniProt P07550); experiment: cell-based; conditions: HEK-293T, with forskolin 2 μM, 10 min, mean ± SD
Description: as §1

V1A-R with purified Gαq = experiment: activation of purified Gq (BODIPY-FL-GTPγS) in V1A-R membranes; assay type: biochemical, human (V1AR); Mus musculus (Gαq); conditions: hotspot swapped peptide vs. parent; vasopressin 100 nM
V1A-R SPASM sensors = experiment: IP1 levels in HEK293T cells expressing V1A-R SPASM sensors; assay type: cell-based, human; conditions: hotspot swapped peptide vs. parent; vasopressin 100 nM
Method: HEK293T cells expressing the indicated sensor were collected 28–32 h post transfection, to assess IP1 levels using the IP-One HTRF assay kit (Cisbio). Cells were gently resuspended in their original media, counted using a hemocytometer, and centrifuged (300 × g, 3 min). An appropriate volume of StimB buffer (CisBio: 10 mM Hepes, 1 mM CaCl2, 0.5 mM MgCl2, 4.2 mM KCl, 146 mM NaCl, 5.5 mM glucose, 50 mM LiCl, pH 7.4) was added to reach a density of 3 × 10^6 cells/mL. Cells were incubated at 37 °C for 15 min. Cells were subsequently incubated with or without 100 nM of Arg-vasopressin peptide for 5 min at 37 °C. The manufacturer’s protocol was modified to achieve a high signal-to-noise ratio. […] IP1 FRET spectra were collected in top read format using a FlexStation3 plate reader with a delay of 50 μs and an integration time of 300 μs. […] FRET was calculated from ratio of the emission at […] to the emission at 620 nm. […]
Supplementary Figure 1 - Hot-spot substitutions in Gα peptides affect G protein activation and downstream signaling from V1A-R. (a) Activation of G protein (Gαq) is monitored by the increase in BODIPY fluorescence upon agonist stimulation of membranes harvested from HEK293T cells expressing V1A- R, and reconstituted with purified Gαq. […] Statistically significant differences were assessed by a one- way ANOVA, followed by Tukey’s post-ANOVA test. […]

β2-AR-mCer = biological target: T1, β2-AR-mCer (Homo sapiens, UniProt P07550); experiment: affinity pull-down and release (binding-and-release) assay for Gα peptide–β2-AR interaction; conditions: biotinylated peptide 30 μM, β2-mCer 10 nM
T1 construct: expressed in transfected cells; host or cells: native membranes of transiently transfected HEK293T cells
Method: Native membranes were prepared from cells expressing β2-mCer and stored in sucrose-supplemented buffer A as described above (Membrane preparations). Membranes were sonicated (3× bursts, 15 s with 1 min pauses) and resuspended in ΔFRET buffer minus Ca^2+ to a concentration of 10 nM receptor based on fluorescence counts. bioQp/bioSp (30 μM) and 100 μM isoproterenol were added and mixed for 5 min. Samples were split into duplicates, one of which was not manipulated in any way to obtain total receptor counts. To the other tube, 20 μl of 0.4 mg/ml streptavidin-coated magnetic beads were added, mixed, and precipitated using a Neodymium disc magnet N52 (20 × 40 mm). Supernatant was removed to a fresh micro-centrifuge tube to monitor fluorescence of receptors not bound to the beads. A solution of 100 μM Qp/Sp was added to the precipitated beads, mixed, and magnetically separated again. The supernatant was collected to determine the released fraction of receptors. Fluorescence of mCer was monitored on a FluoroMax 4 fluorometer (Horiba) using 430 nm excitation (8 nm bandpass) and emission scan from 450 to 500 nm, with the maximum at 475 nm being used for the calculation. Based on total and unbound counts, the amount of receptor bound was calculated (bound = total − unbound) and compared with the counts from the released receptor (% = released/bound). […]

Sequence of β2-AR SPASM sensors (P07550 whole entry, one chain of several): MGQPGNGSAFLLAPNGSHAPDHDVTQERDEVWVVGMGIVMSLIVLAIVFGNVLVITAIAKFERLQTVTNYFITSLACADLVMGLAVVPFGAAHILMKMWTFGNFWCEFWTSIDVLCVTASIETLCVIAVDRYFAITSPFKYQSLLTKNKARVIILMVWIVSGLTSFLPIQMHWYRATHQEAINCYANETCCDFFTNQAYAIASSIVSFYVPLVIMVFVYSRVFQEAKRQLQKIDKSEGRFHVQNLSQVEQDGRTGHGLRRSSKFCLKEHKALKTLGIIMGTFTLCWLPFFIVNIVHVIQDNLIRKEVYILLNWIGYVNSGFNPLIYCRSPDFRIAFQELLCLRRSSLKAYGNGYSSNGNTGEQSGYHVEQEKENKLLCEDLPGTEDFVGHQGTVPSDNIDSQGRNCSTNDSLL
Sequence of β2-AR SPASM sensors (P50148 333-359, one chain of several, further chain): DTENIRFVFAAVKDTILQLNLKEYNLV
T1 sequence (P07550 whole entry): as the sequence (P07550 whole entry, one chain of several) above
Sequence of endogenous β2-AR (P07550 whole entry): as the sequence (P07550 whole entry, one chain of several) above

Which “N-term fragment cleaved (fraction, MALDI-MS)” value ([1]; minus UV, replicate 1) does the source give for “N-term fragment: N-terminal fragment generated by photocleavage of PC-Qp (DTENIRFVFAAVKDTILQLNLKE)” here?
Its value is 0.33.

What about the “N-term fragment cleaved (fraction, MALDI-MS)” value ([1]; minus UV, replicate 2) of the same compound?
The value was 0.24.

And the “N-term fragment cleaved (fraction, MALDI-MS)” value ([1]; minus UV, replicate 3)?
Its value is 0.38.

And the “N-term fragment cleaved (fraction, MALDI-MS)” value ([1]; plus UV (350 nm, 2 min), replicate 1)?
The value was 0.91.

What about the “N-term fragment cleaved (fraction, MALDI-MS)” value ([1]; plus UV (350 nm, 2 min), replicate 2) of the same compound?
Its value is 0.91.

What about the “N-term fragment cleaved (fraction, MALDI-MS)” value ([1]; plus UV (350 nm, 2 min), replicate 3) of the same compound?
Its value is 0.92.

For `CN(C)CCCn1cc(C2=C(c3c[nH]c4ccccc34)C(=O)NC2=O)c2ccccc21` [BimI], which “effect of PKC inhibitor on enhanced cAMP response of Gαq-overexpressing cells” value (PKC) is on record?
The value was “did not block the enhanced cAMP response”.

Which “effect of PKC inhibitor on enhanced cAMP response of Gαq-overexpressing cells” value (PKC) does the source give for `COc1ccc2c(c1)c(C1=C(c3c[nH]c4ccccc34)C(=O)NC1=O)cn2CCCN(C)C` [Gö6983] here?
The value was “did not block the enhanced cAMP response”.

For `CNC[C@H](O)c1ccc(O)c(O)c1` [Epinephrine, epinephrine], which “Maximum cAMP (Emax)” value (β2-AR SPASM sensors; b2-AR-(-) sensor) is on record?
The value was 100%.

What about the “Maximum cAMP (Emax)” value (β2-AR SPASM sensors; b2-AR-(Qp) sensor) of the same compound?
Its value is 182.89%.

What about the “Maximum cAMP (Emax)” value (β2-AR SPASM sensors; b2-AR-(Sp) sensor) of the same compound?
The value was 197.09%.

For `CC(Cc1ccc(O)cc1)NCC(O)c1cc(O)cc(O)c1` (centres unmarked) [Fenoterol, fenoterol], which Emax (endogenous β2-AR; Gαq overexpressing) is on record?
Its Emax is 138 ± 3.15%.

And the Emax (endogenous β2-AR; untransfected (Un.))?
The Emax was 94.5 ± 3.05%.

What about the Emax (β2-AR SPASM sensors; b2-AR-(-) sensor) of the same compound?
Its Emax is 97.5%.

What about the Emax (β2-AR SPASM sensors; b2-AR-(Qp) sensor) of the same compound?
Its Emax is 171%.

And the Emax (β2-AR SPASM sensors; b2-AR-(Sp) sensor)?
Its Emax is 131%.

Which “V1A-R G-protein activation in words” value (V1A-R with purified Gαq) does the source give for “Qp → Sp: Qp mutant L349Q, E355Q, mimicking Sp (DTENIRFVFAAVKDTIQQLNLKQYNLV)” here?
The value was “increased cognate (Qp → Sp > Qp)”.

What about the “V1A-R IP1 levels in words” value (V1A-R SPASM sensors) of the same compound?
The value was “increased cognate (Qp → Sp > Qp)”.

What does the source list for `CC[C@H](C)[C@H](NC(=O)[C@H](CC(N)=O)NC(=O)[C@H](CCC(=O)O)NC(=O)[C@@H](NC(=O)[C@H](CC(=O)O)NC(=O)CCCC[C@@H]1SC[C@@H]2NC(=O)N[C@@H]21)[C@@H](C)O)C(=O)N[C@@H](CCCNC(=N)N)C(=O)N[C@@H](CCCNC(=N)N)C(=O)N[C@H](C(=O)N[C@@H](Cc1ccccc1)C(=O)N[C@@H](CC(N)=O)C(=O)N[C@@H](CC(=O)O)C(=O)N[C@@H](CS)C(=O)N[C@@H](CCCNC(=N)N)C(=O)N[C@@H](CC(=O)O)C(=O)N[C@H](C(=O)N[C@H](C(=O)N[C@@H](CCC(N)=O)C(=O)N[C@@H](CCCNC(=N)N)C(=O)N[C@@H](CCSC)C(=O)N[C@@H](Cc1c[nH]cn1)C(=O)N[C@@H](CC(C)C)C(=O)N[C@@H](CCCNC(=N)N)C(=O)N[C@@H](CCC(N)=O)C(=O)N[C@@H](Cc1ccc(O)cc1)C(=O)N[C@@H](CCC(=O)O)C(=O)N[C@@H](CC(C)C)C(=O)N[C@@H](CC(C)C)C(=O)O)[C@@H](C)CC)[C@@H](C)CC)C(C)C` [bioSp] (Biotin-DTENIRRVFNDCRDIIQRMHLRQYELL-OH)?
mean bound (100-Supernatant) (β2-AR-mCer; isoproterenol 100 μM, total incl. nonspecific): 54.8625%; receptor specifically pulled down (bound) (β2-AR-mCer; nonspecific subtracted, mean): 45% and 45.31%
